{"source": "patent US20150342937A1", "about": "“BOWEL CLEANSING COMPOSITION” (priority 2013, published 2015)", "key": {"intestinal bacteria [1]": {"system": "intestinal bacteria", "test": "Bacterial culture test, 5% diluted solution of stool from one subject", "type": "cell-based", "conditions": "10 ml 5% stool suspension + 15 ml test solution", "protocol": "With respect to Example 2 in which xylitol was used as the first cleansing ingredient, in order to test the antibacterial effect of the solution against intestinal bacteria, a 5% diluted solution of stool was prepared from a stool sample obtained from one subject. […] Then, each of these mixed solutions was split in half and submitted to two different testing institutions, the Seoul Medical Science Institute (SCL), which is a CAP accredited and KSLM/Laboratory Medicine Foundation accredited institution, and the Green Cross Laboratories (GC Labs), which is a KSLM accredited institution, for bacterial culture tests."}, "[2]": {"conditions": "15 g intravenously over 30 minutes twice weekly for four weeks; phase I study 2013; cited from earlier work"}, "intestinal bacteria [3]": {"system": "intestinal bacteria", "test": "Bacterial culture test of mixed stool/test solutions after gas measurement", "type": "cell-based", "conditions": "average; mixed solutions cultured for 48 hours at SCL", "protocol": "Following the measurement of gas concentration as described above, the mixed solutions in the containers were submitted to a laboratory at the Seoul Medical Science Institute (SCL), a CAP accredited and Korean Society for Laboratory Medicine (KSLM)/Laboratory Medicine Foundation accredited institution, where they were cultured for 48 hours and measured for the resulting colony counts."}, "[4]": {"conditions": "scale proposed by Nunes et al. 2008; cited from earlier work"}}}
{"compound": "OC[C@@H](O)[C@H](O)[C@@H](O)CO", "note": "[Reference Example 6, xylitol]", "values": [{"measurement": "Colony count (GC Labs)", "setting": "intestinal bacteria [1]; Green Cross Laboratories", "result": "10.2 × 10^6 CFU/mL"}, {"measurement": "Colony count (SCL)", "setting": "intestinal bacteria [1]; Seoul Medical Science Institute", "result": "60 × 10^6 CFU/mL"}]}
{"compound": "O=C1O[C@H]([C@@H](O)CO)C(O)=C1O", "note": "[ascorbic acid]", "values": [{"measurement": "blood ascorbic acid level", "setting": "[2]", "result": "at least 350 mg/dL"}]}
{"compound": "OC[C@@H](O)[C@@H](O)[C@H](O)[C@@H](O)CO", "note": "[compound 4, sorbitol]", "values": [{"measurement": "Colony count", "setting": "intestinal bacteria [3]", "result": "4.5 × 10^8 CFU/mL"}]}
{"compound": "OC[C@@H](O)[C@@H](O)[C@H](O)[C@H](O)CO", "note": "[compound 5, mannitol]", "values": [{"measurement": "Colony count", "setting": "intestinal bacteria [3]", "result": "4.0 × 10^8 CFU/mL"}]}
{"compound": "OC[C@@H](O)[C@@H](O)[C@H](O)[C@H](O)CO", "note": "[mannitol]", "values": [{"measurement": "rate of adequate bowel cleansing", "setting": "[4]", "result": 75, "unit": "%"}]}
